A short description of the data set: physchem. Particulars: pH 7.4 buffer.

The values below come from ChEMBL document CHEMBL3301361, “Experimental in vitro DMPK and physicochemical data on a set of publicly disclosed compounds”.

Converted amounts (≈) assume the structure as drawn.

One may read the thermodynamic solubility as solubility found after equilibrating the solid with the medium. Compound `CS(=O)(=O)c1ccc2c(c1)cc(C(=O)O)n2Cc1ccc(Cl)c(Cl)c1` came in with a thermodynamic solubility of 1100 µM (≈ 437 µg/mL).
`COc1cc2ncnc(Nc3cc(O)c(C)cc3F)c2cc1OC`: the thermodynamic solubility amounted to 2.2 µM (≈ 0.725 µg/mL).
In turn, `COc1cc(Oc2ccc(C(=O)NCc3ccncc3)cc2)ccc1[N+](=O)[O-]` gave a solubility (thermodynamic) of 21.4 µM (≈ 8.12 µg/mL).
In turn, `CN(C)CCNS(=O)(=O)c1ccc(Nc2nccc(-c3cnc4ccccn34)n2)cc1` returned a solubility (thermodynamic) of 30.9 µM (≈ 13.5 µg/mL).
`O=S(=O)(Nc1ccncc1)c1ccccc1` yielded a solubility (thermodynamic) of 794 µM (≈ 186 µg/mL).
Compound `COc1ccccc1NC(=O)c1cc2ccccc2cc1O` showed a thermodynamic solubility of 0.9 µM (≈ 0.264 µg/mL).
`O=C(NC1CCN(C(=O)c2cccs2)CC1)c1ccccc1` showed a thermodynamic solubility of 166 µM (≈ 52.2 µg/mL).
The value for `O=C(O)c1cc2cc(F)ccc2n1Cc1ccc(Cl)c(Cl)c1` was 209 µM (≈ 70.6 µg/mL); that for `Oc1ccc(-n2ccnc2)cc1` was 1260 µM (≈ 202 µg/mL).
In turn, `CC(C)Oc1cc(OCC2CCCC2)cc(C(=O)Nc2ccc(C(=O)O)cn2)c1` came in with a solubility (thermodynamic) of 45.7 µM (≈ 18.2 µg/mL).
`Cc1cc2n[nH]c(=O)n2c2cc(-c3ccc([S+](C)[O-])cc3)ccc12` (centres undefined): the solubility (thermodynamic) was determined as 1.9 µM (≈ 0.641 µg/mL).
`CCC(=O)Nc1c(C#N)c2nc3ccccc3nc2n1-c1ccccc1C` returned a thermodynamic solubility of 13.5 µM (≈ 4.8 µg/mL).
The compound `CN(C)CCCN(C)c1nc2cc(Cl)c(Cl)cc2nc1/C=C/c1ccccc1` displayed a thermodynamic solubility of 5.8 µM (≈ 2.41 µg/mL).
The value for `CNC(=O)[C@@H](NC(=O)[C@H](CC(C)C)[C@@H](Sc1ccccc1)C(=O)NO)C(C)(C)C` was 83.2 µM (≈ 35.2 µg/mL).
As for `C[C@H]1COCCN1c1cc(CS(C)(=O)=O)nc(-c2ccc3[nH]ccc3c2)n1`, the thermodynamic solubility was determined as 190 µM (≈ 73.6 µg/mL).
With `C[C@@H](c1ccc(-c2ccc(F)cc2F)cc1)N1CC[C@](CCO)(c2ccc(F)cc2)OC1=O`, the solubility (thermodynamic) is 2.5 µM (≈ 1.14 µg/mL).
The compound `COc1ccc(-c2cnn(C3CCS(=O)(=O)C3)c2N)cc1` (centres undefined) gave a solubility (thermodynamic) of 81.3 µM (≈ 25 µg/mL).
The value for `COc1ccc(NCc2ccc(C(=O)Nc3ccccc3N)cc2)cc1OC` was 57.5 µM (≈ 21.7 µg/mL); that for `C[C@@H]1CN(C(=O)OC(C)(C)C)CCN1c1ncc(OCc2ccc(S(C)(=O)=O)cc2F)cn1` was 2.2 µM (≈ 1.06 µg/mL); that for `Clc1ccc(-c2nnc(CNC3CC3)o2)cc1` was 1230 µM (≈ 307 µg/mL).
Consider `COc1ccc(CNC(=O)c2ccc(Oc3ccc(C#C[C@]4(O)CN5CCC4CC5)cc3)cc2)nc1`, for which the solubility (thermodynamic) is 347 µM (≈ 168 µg/mL).
`CS(=O)(=O)c1ccc(N2CCN(C(=O)[C@@H]3CCCC[C@H]3C(=O)NCC#N)CC2)cc1`: the solubility (thermodynamic) came out at 275 µM (≈ 119 µg/mL).
The compound `N#Cc1ccccc1C(=O)N1CCC(C(=O)c2ccc(F)cc2)CC1` gave a solubility (thermodynamic) of 135 µM (≈ 45.4 µg/mL).
`O=C(Nc1cccc(O)c1)c1ccc(OCCCN2CCCC2)cc1OCc1ccc(F)cc1` yielded a thermodynamic solubility of 5 µM (≈ 2.32 µg/mL).
As for `CC(=O)NC1CCN(C(=O)CN2CCN(CCc3c(-c4cc(C)cc(C)c4)[nH]c4sc(C(C)(C)C(=O)N5C6CCC5CC6)cc34)CC2)C1` (centres undefined), the solubility (thermodynamic) is 107 µM (≈ 72.1 µg/mL).
The compound `O=C(O)c1cc2ccc(F)cc2n1Cc1ccc(Cl)c(Cl)c1` showed a thermodynamic solubility of 182 µM (≈ 61.5 µg/mL).
In the case of `COc1cc2ncnc(Nc3cccc(Cl)c3F)c2cc1CN(C)C1CCNC1=O` (centres undefined) it was 89.1 µM (≈ 38.3 µg/mL); in that of `O=C(Nc1ccccc1)c1ccc(OCCCN2CCCC2)cc1OCc1cccnc1`, 398 µM (≈ 172 µg/mL); in that of `COc1cc2c(Nc3ccc(NC(=O)c4ccccc4)cc3)ncnc2cc1OCCCN1CCOCC1`, 2.5 µM (≈ 1.28 µg/mL).
With `O=c1cc(CN2CCOCC2)occ1OCCCCCSc1ccnc2cc(C(F)(F)F)ccc12`, the thermodynamic solubility was 77.6 µM (≈ 39.5 µg/mL).
On to `COc1cc(OC2CCN(C)CC2)c2c(Nc3ccc(F)c(Cl)c3)ncnc2c1`, for which the solubility (thermodynamic) came to 2.1 µM (≈ 0.875 µg/mL).
`CN(C(=O)Cc1ccc(S(C)(=O)=O)cc1)[C@@H]1CCN(Cc2nc3cc(F)ccc3s2)C[C@@H]1F` showed a solubility (thermodynamic) of 1.8 µM (≈ 0.888 µg/mL).
In turn, `C#CCN(Cc1ccc2nc(CO)[nH]c(=O)c2c1)c1ccc(C(=O)NCc2cccc([N+](=O)[O-])c2)cc1` gave a thermodynamic solubility of 0.4 µM (≈ 0.199 µg/mL).
Take `CO[C@@H]1CN(Cc2ccc(C(F)(F)F)cc2)CC[C@@H]1N(C)C(=O)Cc1ccc(-n2cnnn2)cc1`: the solubility (thermodynamic) stood at 75.9 µM (≈ 37.1 µg/mL).
The compound `c1ccc(-c2cn3cccnc3n2)cc1` returned a solubility (thermodynamic) of 676 µM (≈ 132 µg/mL).
Regarding `Cc1ccccc1Oc1cc(-n2ncc(Cl)c(Cl)c2=O)ncn1`, the solubility (thermodynamic) was found to be 1 µM (≈ 0.349 µg/mL).
In the case of `Cn1cc(C2=C(c3cccc(NCC(O)CO)c3)C(=O)NC2=O)c2cc(F)ccc21` (centres undefined), the solubility (thermodynamic) is 4.4 µM (≈ 1.8 µg/mL).
`COC1=C(c2ccccc2)C(=O)c2ccccc2C1=O` gave a solubility (thermodynamic) of 8.1 µM (≈ 2.14 µg/mL).
In the case of `NC(=O)Nc1sc(-c2ccc(F)cc2)cc1C(N)=O`, the thermodynamic solubility came to 67.6 µM (≈ 18.9 µg/mL).
For the compound `O=c1cc(-c2cccnc2)[nH]c2ccccc12`, the solubility (thermodynamic) stood at 1350 µM (≈ 300 µg/mL).
The value for `Clc1cc(Nc2ncnc3[nH]nc(OCCN4CCOCC4)c23)ccc1OCc1ccccn1` was 2 µM (≈ 0.964 µg/mL); that for `CC(C)(C)OC(=O)N1CCC[C@H]1C(=O)Nc1ccc(Br)cc1` was 23.4 µM (≈ 8.64 µg/mL).
Regarding `Nc1ccccc1NC(=O)c1ccc(C2CCN(Cc3ccc(C(=O)NC4CC4)cc3)CC2)cc1`, the thermodynamic solubility turned out to be 6.6 µM (≈ 3.09 µg/mL).
On to `Nc1nnc(-c2ccccc2F)s1`, for which the thermodynamic solubility is 316 µM (≈ 61.7 µg/mL).
Take `Cc1ncc(-c2nc(Nc3ccc(N4CCOCC4)cc3)ncc2F)n1C(C)C`: the thermodynamic solubility turned out to be 118 µM (≈ 46.6 µg/mL).
With `Nc1ccccc1NC(=O)c1ccc(-c2ncc(CN3CCC3)cc2Cl)cc1`, the thermodynamic solubility is 1350 µM (≈ 530 µg/mL).
Consider `c1csc(-c2n[nH]c3c2Cc2ccccc2-3)c1`, for which the solubility (thermodynamic) was determined as 0.6 µM (≈ 0.143 µg/mL).
In the case of `Nc1nc2cc(Cl)ccc2n1CCCO` it was 1320 µM (≈ 298 µg/mL).
Turning to `O=C(O)c1csc(NC(=O)C(CC2CCCC2)c2ccc(Cl)c(Cl)c2)n1` (centres undefined), the solubility (thermodynamic) stood at 34.7 µM (≈ 14.3 µg/mL).
The compound `CCOc1ccccc1C(=O)N1CCC(C(=O)c2ccc(F)cc2)CC1` returned a solubility (thermodynamic) of 5.8 µM (≈ 2.06 µg/mL).
The compound `CN(C)CCSc1nc2ccc(Br)cc2cc1-c1ccccc1` came in with a solubility (thermodynamic) of 9.5 µM (≈ 3.68 µg/mL).
`COCCNS(=O)(=O)c1ccc(Nc2nccc(-c3cnc(C)n3C(C)C)n2)cc1` had a solubility (thermodynamic) of 363 µM (≈ 156 µg/mL).
As for `NC(=O)Nc1sc(-c2ccc(Cl)c(Cl)c2)cc1C(=O)N[C@H]1CCCNC1`, the thermodynamic solubility came out at 66.1 µM (≈ 27.3 µg/mL).
`O=C(O)COc1ccc(OCCNC[C@H](O)COc2ccccc2)cc1` displayed a solubility (thermodynamic) of 1020 µM (≈ 370 µg/mL).
The value for `c1ccc(CSc2nnc(-c3ccco3)c(-c3ccco3)n2)cc1` was 5.2 µM (≈ 1.74 µg/mL); that for `CC(C)(C)OC(=O)N1CCN(c2cnc(OCc3ccc(S(C)(=O)=O)cc3)cn2)CC1` was 4.7 µM (≈ 2.11 µg/mL); that for `CC(C)OC(=O)c1cn(Cc2c(F)cccc2F)c2sc(-c3ccc(NC(=O)C(C)C)cc3)c(CN(C)Cc3ccccc3)c2c1=O` was 38 µM (≈ 25 µg/mL).
As to `Cc1ccnc(NC(=O)CSc2ccccn2)c1`, the solubility (thermodynamic) was 436 µM (≈ 113 µg/mL).
For `Oc1ncnc2c1cnn2Cc1ccccc1`, the thermodynamic solubility worked out at 158 µM (≈ 35.9 µg/mL).
`CCOc1cccc2c3c([nH]c12)CCN(C(=O)[C@@H]1CCCC[C@H]1C(=O)NC1(C#N)CC1)C3` returned a solubility (thermodynamic) of 302 µM (≈ 131 µg/mL).
`O=c1c2ccccc2oc2ccccc12` [XANTHONE] yielded a thermodynamic solubility of 20 µM (≈ 3.92 µg/mL).
In the case of `COCCOc1cc2c(Oc3cnn(CC(=O)Nc4cccc(OC)c4)c3)ncnc2cc1OC`, the solubility (thermodynamic) was determined as 3.1 µM (≈ 1.49 µg/mL).
In turn, `O=C(Cc1ccc2ccccc2c1)Nc1cc(-c2ccc(Cl)cc2)n[nH]1` registered a thermodynamic solubility of 0.5 µM (≈ 0.181 µg/mL).
Compound `CN(c1ccc(Cl)c(CO)c1)c1ccnc(Nc2cc(N3CCOCC3)cc(N3CCOCC3)c2)n1` had a thermodynamic solubility of 3.1 µM (≈ 1.58 µg/mL).
